Assay results from patent US20260250312A1, “ANTIBACTERIAL COMPOUNDS ELIMINATING DORMANT BACTERIAL CELLS” (UNIVERSITÉ D'AIX-MARSEILLE, priority 2022, published 2026).
Values joined by “and” are separate entries in the source; they are usually repeats but may differ in a detail not shown here. Equal values may be shown once.

Assays:
[1] = system: Pseudomonas aeruginosa (ATCC27853); experiment: Microdilution MIC assay (CLSI-based), P. aeruginosa; type: cell-based; conditions: Pseudomonas aeruginosa, ATCC27853, 20 h, 20 hours incubation at 35-37° C., MHB; read-out: Minimum inhibitory concentration P. aeruginosa ATCC27853
Summary of the method: (§1)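 Broth microdilution per modified CLSI guidelines in Mueller Hinton broth, 200 μL, inoculum ca. 5×10^5 CFU/mL; compounds tested as salts, twofold dilutions from 0.2 mg/mL, in triplicate. MIC determined from OD at 620 nm after incubation.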

CHO-K1 cells = experiment: WST1 cytotoxicity test; type: cell-based, Chinese hamster; conditions: Cricetulus griseus, CHO-K1, 24 h, WST1, 24 hours at 37° C.; read-out: IC50 CHO
Summary of the method: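 CHO-K1 cells pre-cultured 24 h, then exposed 24 h at 37 °C to increasing compound concentrations. Viability read as WST-1 formazan absorbance at 450 nm after 20 min; dose-response fitted by nonlinear regression.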

[2] = system: Enterococcus faecalis (ATCC29212); experiment: Microdilution MIC assay (CLSI-based), E. faecalis; type: cell-based; conditions: Enterococcus faecalis, ATCC29212, 20 h, 20 hours incubation at 35-37° C., MHB; read-out: Minimum inhibitory concentration E. faecalis ATCC29212
Summary of the method: as §1

[3] = system: Escherichia coli (ATCC28922); experiment: Microdilution MIC assay (CLSI-based), E. coli; type: cell-based; conditions: Escherichia coli, ATCC28922, 20 h, 20 hours incubation at 35-37° C., MHB; read-out: Minimum inhibitory concentration E. coli ATCC28922
Summary of the method: as §1

[4] = system: Staphylococcus aureus (ATCC25923); experiment: Microdilution MIC assay (CLSI-based), S. aureus; type: cell-based; conditions: Staphylococcus aureus, ATCC25923, 20 h, 20 hours incubation at 35-37° C., MHB; read-out: Minimum inhibitory concentration S. aureus ATCC25923
Summary of the method: as §1

| Structure (SMILES) | MIC [1] | IC50 (CHO-K1 cells) | MIC [2] | MIC [3] | MIC [4] |
| --- | --- | --- | --- | --- | --- |
| COC(=O)[C@H](Cc1ccccc1)NC(=O)CC[C@@H](C)[C@H]1CCC2C3C(CC[C@@]21C)[C@@]1(C)CC[C@H](NCCN)C[C@H]1C[C@H]3O (stereo partly drawn) [Compound S015, methyl ((4R)-4-((3S,5S,7R,10S,13R,17R)-3-((2-aminoethyl)amino)-7-hydroxy-10,13-dimethylhexadecahydro-1H-cyclopenta[a]phenanthren-17-yl)pentanoyl)-L-phenylalaninate] | 50 µM and 32 µg/mL | > 250 µM and > 149 µg/mL | 12.5 µM and 8 µg/mL | 12.5 µM and 8 µg/mL | 12.5 µM and 8 µg/mL |
| COC(=O)[C@@H](NC(=O)CC[C@@H](C)[C@H]1CC[C@H]2[C@@H]3[C@H](O)C[C@@H]4CC(NCCCNCCCCNCCCN)CC[C@]4(C)[C@H]3CC[C@]12C)C(C)C (mixture of isomers) [Compound S001, methyl ((4R)-4-((3S,5S,7R,10S,13R,17R)-3-((3-((4-((3-aminopropyl)amino)butyl)amino)propyl)amino)-7-hydroxy-10,13-dimethylhexadecahydro-1H-cyclopenta[a]phenanthren-17-yl)pentanoyl)valinate] | 12.5 µM and 8 µg/mL | 4.41 µM and 3.04 µg/mL | 25 µM and 16 µg/mL | 12.5 µM and 8 µg/mL | 3.12 µM and 2 µg/mL |
| COC(=O)[C@H](Cc1ccccc1)NC(=O)CC[C@@H](C)[C@H]1CCC2C3C(CC[C@@]21C)[C@@]1(C)CC[C@H](NCCNCCN)C[C@H]1C[C@H]3O (stereo partly drawn) [Compound S024, methyl ((4R)-4-((3S,5S,7R,10S,13R,17R)-3-((2-((2-aminoethyl)amino)ethyl)amino)-7-hydroxy-10,13-dimethylhexadecahydro-1H-cyclopenta[a]phenanthren-17-yl)pentanoyl)-L-phenylalaninate] | 100 µM and 64 µg/mL | 83.7 µM and 53.5 µg/mL | 25 µM and 16 µg/mL | 25 µM and 16 µg/mL | 25 µM and 16 µg/mL |
| COC(=O)[C@H](Cc1ccccc1)NC(=O)CC[C@@H](C)[C@H]1CCC2C3C(CC[C@@]21C)[C@@]1(C)CC[C@H](NCCCN2CCN(CCCN)CC2)C[C@H]1C[C@H]3O (stereo partly drawn) [Compound S025, methyl ((4R)-4-((3S,5S,7R,10S,13R,17R)-3-((3-(4-(3-aminopropyl)piperazin-1-yl)propyl)amino)-7-hydroxy-10,13-dimethylhexadecahydro-1H-cyclopenta[a]phenanthren-17-yl)pentanoyl)-L-phenylalaninate] | 100 µM and 64 µg/mL | 3.7 µM and 2.72 µg/mL | 25 µM and 16 µg/mL | 25 µM and 16 µg/mL | 25 µM and 16 µg/mL |
| COC(=O)[C@H](NC(=O)CC[C@@H](C)[C@H]1CCC2C3C(CC[C@@]21C)[C@@]1(C)CC[C@H](NCCCCCCN)C[C@H]1C[C@H]3O)C(C)C (stereo partly drawn) [Compound S023, methyl ((4R)-4-((3S,5S,7R,10S,13R,17R)-3-((6-aminohexyl)amino)-7-hydroxy-10,13-dimethylhexadecahydro-1H-cyclopenta[a]phenanthren-17-yl)pentanoyl)-D-valinate] | > 200 µM and > 120 µg/mL | 48.5 µM and 29.3 µg/mL | 100 µM and 64 µg/mL | 100 µM and 64 µg/mL | 50 µM and 32 µg/mL |
| COC(=O)[C@H](NC(=O)CC[C@@H](C)[C@H]1CCC2C3C(CC[C@@]21C)[C@@]1(C)CC[C@H](NCCCNCCCNCCCN)C[C@H]1C[C@H]3O)C(C)C (stereo partly drawn) [Compound S011, methyl ((4R)-4-((3S,5S,7R,10S,13R,17R)-3-((3-((3-((3-aminopropyl)amino)propyl)amino)propyl)amino)-7-hydroxy-10,13-dimethylhexadecahydro-1H-cyclopenta[a]phenanthren-17-yl)pentanoyl)-D-valinate] | 25 µM and 16 µg/mL | 1.17 µM and 0.79 µg/mL | 25 µM and 16 µg/mL | 12.5 µM and 8 µg/mL | 12.5 µM and 8 µg/mL |
| COC(=O)[C@H](C)NC(=O)CC[C@@H](C)[C@H]1CCC2C3C(CC[C@@]21C)[C@@]1(C)CC[C@H](NCCCNCCNCCCN)C[C@H]1C[C@H]3O (stereo partly drawn) [Compound S034, methyl ((4R)-4-((3S,5S,7R,10S,13R,17R)-3-((3-((2-((3-aminopropyl)amino)ethyl)amino)propyl)amino)-7-hydroxy-10,13-dimethylhexadecahydro-1H-cyclopenta[a]phenanthren-17-yl)pentanoyl)-L-alaninate] | 100 µM and 64 µg/mL | 266 µM and 168 µg/mL | 6.25 µM and 4 µg/mL | 50 µM and 32 µg/mL | 50 µM and 32 µg/mL |
| COC(=O)[C@@H](NC(=O)CC[C@@H](C)[C@H]1CCC2C3C(CC[C@@]21C)[C@@]1(C)CC[C@H](NCCCN(C)CCCN)C[C@H]1C[C@H]3O)C(C)C (stereo partly drawn) [Compound S026, methyl ((4R)-4-((3S,5S,7R,10S,13R,17R)-3-((3-((3-aminopropyl)(methyl)amino)propyl)amino)-7-hydroxy-10,13-dimethylhexadecahydro-1H-cyclopenta[a]phenanthren-17-yl)pentanoyl)-L-valinate] | 200 µM and 126 µg/mL | 11.4 µM and 7.2 µg/mL | 50 µM and 32 µg/mL | 25 µM and 16 µg/mL | 25 µM and 16 µg/mL |
| COC(=O)[C@H](C)NC(=O)CC[C@@H](C)[C@H]1CCC2C3C(CC[C@@]21C)[C@@]1(C)CC[C@H](NCCCNCCCCNCCCN)C[C@H]1C[C@H]3O (stereo partly drawn) [Compound S038, methyl ((4R)-4-((3S,5S,7R,10S,13R,17R)-3-((3-((4-((3-aminopropyl)amino)butyl)amino)propyl)amino)-7-hydroxy-10,13-dimethylhexadecahydro-1H-cyclopenta[a]phenanthren-17-yl)pentanoyl)-L-alaninate] | 12.5 µM and 8 µg/mL | 45 µM and 29.8 µg/mL | 6.25 µM and 4 µg/mL | 6.25 µM and 4 µg/mL | 3.13 µM and 2 µg/mL |
| COC(=O)[C@H](NC(=O)CC[C@@H](C)[C@H]1CCC2C3C(CC[C@@]21C)[C@@]1(C)CC[C@H](NCCN)C[C@H]1C[C@H]3O)C(C)C (stereo partly drawn) [Compound S008, methyl ((4R)-4-((3S,5S,7R,10S,13R,17R)-3-((2-aminoethyl)amino)-7-hydroxy-10,13-dimethylhexadecahydro-1H-cyclopenta[a]phenanthren-17-yl)pentanoyl)-D-valinate] | 200 µM and 128 µg/mL | 86 µM and 47.1 µg/mL | 25 µM and 16 µg/mL | 25 µM and 16 µg/mL | 25 µM and 16 µg/mL |
| COC(=O)[C@H](NC(=O)CC[C@@H](C)[C@H]1CCC2C3C(CC[C@@]21C)[C@@]1(C)CC[C@H](NCCCCCCCCCCN)C[C@H]1C[C@H]3O)C(C)C (stereo partly drawn) [Compound S009, methyl ((4R)-4-((3S,5S,7R,10S,13R,17R)-3-((10-aminodecyl)amino)-7-hydroxy-10,13-dimethylhexadecahydro-1H-cyclopenta[a]phenanthren-17-yl)pentanoyl)-D-valinate] | > 200 µM and > 128 µg/mL | 20 µM and 13.2 µg/mL | 25 µM and 16 µg/mL | 200 µM and 128 µg/mL | 25 µM and 16 µg/mL |
| COC(=O)[C@@H](NC(=O)CC[C@@H](C)[C@H]1CCC2C3C(CC[C@@]21C)[C@@]1(C)CC[C@H](NCCCCN)C[C@H]1C[C@H]3O)C(C)C (stereo partly drawn) [Compound S043, methyl ((4R)-4-((3S,5S,7R,10S,13R,17R)-3-((4-aminobutyl)amino)-7-hydroxy-10,13-dimethylhexadecahydro-1H-cyclopenta[a]phenanthren-17-yl)pentanoyl)-L-valinate] | 200 µM and 128 µg/mL | 107 µM and 61.9 µg/mL | 25 µM and 16 µg/mL | 50 µM and 32 µg/mL | 25 µM and 16 µg/mL |
| COC(=O)[C@H](CC(C)C)NC(=O)CC[C@@H](C)[C@H]1CCC2C3C(CC[C@@]21C)[C@@]1(C)CC[C@H](NCCCNCCCCNCCCN)C[C@H]1C[C@H]3O (stereo partly drawn) [Compound S036, methyl ((4R)-4-((3S,5S,7R,10S,13R,17R)-3-((3-((4-((3-aminopropyl)amino)butyl)amino)propyl)amino)-7-hydroxy-10,13-dimethylhexadecahydro-1H-cyclopenta[a]phenanthren-17-yl)pentanoyl)-L-leucinate] | 12.5 µM and 8 µg/mL | 50.5 µM and 35.6 µg/mL | 6.25 µM and 4 µg/mL | 6.25 µM and 4 µg/mL | 50 µM and 32 µg/mL |
